Experiments:
[1] = target: T1, Acetylcholinesterase (Mus musculus) (UniProt P21836); assay: Inhibition of AChE in Mus musculus (mouse) brain homogenate at 10 uM after 5 min by Ellman method relative to control; format: tissue-based
T1 sequence (whole entry): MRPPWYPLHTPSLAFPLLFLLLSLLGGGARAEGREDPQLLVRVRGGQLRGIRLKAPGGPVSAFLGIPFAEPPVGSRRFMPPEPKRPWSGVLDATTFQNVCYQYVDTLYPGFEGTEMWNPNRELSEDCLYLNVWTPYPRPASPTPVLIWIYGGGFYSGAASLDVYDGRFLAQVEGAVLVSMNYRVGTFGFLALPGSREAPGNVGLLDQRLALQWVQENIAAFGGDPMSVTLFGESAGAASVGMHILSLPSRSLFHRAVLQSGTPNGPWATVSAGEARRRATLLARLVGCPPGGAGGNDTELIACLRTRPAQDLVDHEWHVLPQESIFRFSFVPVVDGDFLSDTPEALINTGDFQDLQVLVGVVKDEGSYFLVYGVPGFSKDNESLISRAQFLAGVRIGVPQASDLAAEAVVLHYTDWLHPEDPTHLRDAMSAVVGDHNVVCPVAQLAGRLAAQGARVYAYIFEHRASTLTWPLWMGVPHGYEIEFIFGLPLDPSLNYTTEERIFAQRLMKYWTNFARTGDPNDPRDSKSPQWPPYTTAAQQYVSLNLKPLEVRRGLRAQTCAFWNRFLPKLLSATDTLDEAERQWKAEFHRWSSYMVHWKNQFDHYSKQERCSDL

[2] = target: T1, Acetylcholinesterase (Mus musculus); assay: Inhibition of AChE in Mus musculus (mouse) brain homogenate assessed as residual activity measuring acetylthiocholine iodide hydrolysis per mg protein at 10 uM after 5 min by Ellman method; format: tissue-based
[3] = test system: Mus musculus; assay: Antiamnesic activity in Mus musculus (mouse) assessed as retention of memory at 1 mg/kg, ip measured after 24 hr by elevated plus maze test; format: functional; settings: route intraperitoneal
[4] = test system: Mus musculus; assay: Antiamnesic activity in Mus musculus (mouse) assessed as retention of memory at 3 mg/kg, ip measured after 24 hr by elevated plus maze test; format: functional; settings: route intraperitoneal

| Structure (SMILES) | Imax [1] [%] | Activity [2] [nmol/min] | Activity [3] [%] | Activity [4] [%] |
| --- | --- | --- | --- | --- |
| O=C(COc1cccc2ccccc12)N1CCCC1 | 73.9 | 29.7 | 51.59 | 68.44 |
| CN1CCN(C(=O)COc2cccc3ccccc23)CC1 | 86.5 | 15.4 | 73.76 | 86.18 |
| O=C(COc1cccc2ccccc12)N1CCOCC1 | 77.4 | 25.8 | 62.69 | 81.65 |
| Nc1cccc2c(OCC(=O)N3CCOCC3)cccc12 | 51 | 55.9 | 43.26 | 75.35 |
| NC(=O)CN1CCCC1=O [PIRACETAM] | – | – | 32.47 | 46.88 |
| CCN(CC)CCOc1cccc2c(NC(=O)C(C)C)cccc12 | 26.3 | 56 | 19.28 | 28.1 |
| O=C(COc1cccc2ccccc12)N1CCCCC1 | 26.8 | 83.5 | 63 | 72.94 |
| CN(C)C(=O)COc1cccc2ccccc12 | 33.1 | 76.2 | 52.92 | 77.78 |
| Nc1cccc2c(OCC(=O)N3CCCC3)cccc12 | 31.1 | 78.5 | 69.11 | 74.47 |
| CC(C)C(=O)Nc1cccc2c(OCCN3CCOCC3)cccc12 | 22.3 | 59 | 22.23 | 25.43 |

From ChEMBL document CHEMBL3046234, “Synthesis and pharmacological evaluation of some new naphthol derived aryloxy derivatives as cognition enhancers” (2012)
